Key:
solubility = format: physicochemical
[1] = test system: Staphylococcus aureus (H-Heatley) NRRL B-314; assay: turbidometric assay on semiautomated system (Autoturb), relative gram-positive activity; format: cell-based; settings: relative to A-28086 factor A (standard); nutrient broth pH 7, four hours at 37° C.
Method: The C2 -C6 -acyl ester derivatives of A-28086 factor A also have antibacterial and antifungal activity. In one aspect, these derivatives have increased gram-positive activity. The relative gram-positive activities of certain of these derivatives were compared with the activity of factor A. The compounds were tested by turbidometric assay on a semiautomated system (Autoturb® microbiological assay system, Elanco) described by N. R. Kuzel and F. W. Kavanaugh in J. Pharmaceut. Sci. 60 (5), 764 and 767 (1971). In testing the A-28086 antibiotics, the following test parameters were used: Staphylococcus aureus (H-Heatley) NRRL B-314 in a nutrient broth medium (pH 7), incubated for four hours at 37° C. Test samples and the standard were dissolved in methanol-water (10:90). The standard, A-28086 factor A, was presented to the Autoturb® carrousel at concentrations of 2, 3, 4, and 5 mcg/ml. Test compounds were diluted to contain approximately 3 or 4 mcg of activity per ml, as presented to the carrousel. The relative activities of test compounds, as compared to that of the standard, are given below: […]

type III poliovirus = format: cell-based; settings: in vitro plaque suppression
vaccinia virus = format: cell-based; settings: in vitro plaque suppression
herpes virus = assay: in vitro plaque suppression test; format: cell-based
Semliki Forest virus = assay: in vitro plaque suppression test; format: cell-based
[2] = test system: Transmissible Gastro-enteritis virus; format: cell-based
Newcastle Disease virus = format: cell-based; settings: tissue-culture
[3] = test system: Infectious Bovine Rhinotracheitis virus; format: cell-based
Eimeria tenella = assay: anticoccidial activity in chicks (Table VIII); format: in vivo; settings: for Percent Weight Gain: normal controls 100
Eimeria acervulina = assay: anticoccidial activity in chicks (Table IX); format: in vivo; settings: E. acervulina; for Average Lesion Score: infected controls 1.60; for Oocysts Passed, Total/Bird: infected controls 36.32; for Percent Weight Gain: infected controls 63
Source text: (§1) ^1 Four replicates, 5 broiler cockerels each

Eimeria maxima = assay: anticoccidial activity in chicks (Table IX); format: in vivo; settings: E. maxima, 0.005 percent in feed
Source text: as §1

Emeria brunetti = assay: anticoccidial activity in chicks (Table IX); format: in vivo; settings: E. brunetti, 0.005 percent in feed
Source text: as §1

[4] = test system: E. necatrix and E. tenella; assay: anticoccidial activity in chicks, mixed infection (Table X); format: in vivo; settings: 0.005 percent in feed
Source text: (§2) ^1 Four replicates, 5 broiler cockerels each.

[5] = test system: E. tenella, E. necatrix, E. maxima, E. brunetti, E. acervulina, and E. mivati; assay: as above; format: in vivo; settings: 0.01 percent in feed
Source text: as §2

ruminal propionic acid = ruminal propionic acid concentration in fistulated steers; format: in vivo; settings: mean of five analyses in 14-day treatment
Method: The test reported in Table XII was conducted with mature fistulated steers weighing about 1,000 lbs. each. Two steers were fed a normal diet, and four steers in each treatment group were fed an identical diet to which A-28086 factor A had been added. To each aliquot (100 ml) of rumen fluid taken, 10 percent metaphosphoric acid (100 ml) was added. The samples were allowed to settle, and the supernatants were analyzed by gas chromatographic methods to determine propionic acid concentrations.
The results in Table XII are the mean percent increases in ruminal propionic acid concentration, averaged over five analyses in a 14-day treatment period. Controls had approximately 20 molar percent propionic acid.

[6] = feed-utilization efficiency in sheep; format: in vivo; settings: 56 days; for Feed Intake: control 3.56; for Feed/Gain: control 8.38; for Average Daily Gain: control .42
[7] = first group, 0.01 percent in feed
[8] = first group, 0.02 percent in feed
[9] = first group, 0.04 percent in feed
[10] = second group, 0.0025 percent in feed
[11] = second group, 0.005 percent in feed
[12] = second group, 0.01 percent in feed
[13] = second group, 0.02 percent in feed

In the case of `CCC(C(=O)O)C1OC(C(C)C(O)C(C)C(=O)C(CC)C2OC3(C=CC(O)C4(CCC(C)(C5CCC(O)(CC)C(C)O5)O4)O3)C(C)CC2C)C(C)CC1C` (stereo not drawn) [A-28086 factor A], the “solubility in organic solvents” value (solubility; organic solvents such as methanol, ethanol, DMF, DMSO, ethyl acetate, chloroform, acetone, benzene) is reported as “soluble”, the solubility in water (solubility; water) is reported as “insoluble in water” and the “Relative G+ Activity” value [1] is reported as 1. The antiviral activity (type III poliovirus) was “active”, the antiviral activity (vaccinia virus) was “active” and the antiviral activity (herpes virus) was “active”. For the same compound, the antiviral activity (Semliki Forest virus) was “active”, the antiviral activity [2] was “active” and the antiviral activity (Newcastle Disease virus) was “active”. The antiviral activity [3] was “active”, the “Percent Reduction in Lesion Score” value (Eimeria tenella; [7]) was 95% and the “Percent Mortality” value (Eimeria tenella; first group, 0.01 percent in feed, 10 chickens) was 0%. For the same compound, the “Average Lesion Score” value (Eimeria tenella; first group, 0.01 percent in feed, infected controls 3.65) was 0.2, the “Percent Weight Gain” value (Eimeria tenella; [7]) was 94% and the “Percent Reduction in Lesion Score” value (Eimeria tenella; [8]) was 95%. The “Percent Mortality” value (Eimeria tenella; first group, 0.02 percent in feed, 10 chickens) was 0%, the “Average Lesion Score” value (Eimeria tenella; first group, 0.02 percent in feed, infected controls 3.65) was 0.2 and the “Percent Weight Gain” value (Eimeria tenella; [8]) was 82%. The “Percent Reduction in Lesion Score” value (Eimeria tenella; [9]) was 100%, the “Percent Mortality” value (Eimeria tenella; first group, 0.04 percent in feed, 10 chickens) was 0% and the “Average Lesion Score” value (Eimeria tenella; first group, 0.04 percent in feed, infected controls 3.65) was 0. The “Percent Weight Gain” value (Eimeria tenella; [9]) was 50%, the “Percent Reduction in Lesion Score” value (Eimeria tenella; [10]) was 0% and the “Percent Mortality” value (Eimeria tenella; second group, 0.0025 percent in feed, 20 chickens) was 10%. The “Average Lesion Score” value (Eimeria tenella; second group, 0.0025 percent in feed, infected controls 3.85) was 3.85, the “Percent Weight Gain” value (Eimeria tenella; [10]) was 87% and the “Percent Reduction in Lesion Score” value (Eimeria tenella; [11]) was 27%. For the same compound, the “Percent Mortality” value (Eimeria tenella; second group, 0.005 percent in feed, 20 chickens) was 0%, the “Average Lesion Score” value (Eimeria tenella; second group, 0.005 percent in feed, infected controls 3.85) was 2.8 and the “Percent Weight Gain” value (Eimeria tenella; [11]) was 91%. For the same compound, the “Percent Reduction in Lesion Score” value (Eimeria tenella; [12]) was 100%, the “Percent Mortality” value (Eimeria tenella; second group, 0.01 percent in feed, 20 chickens) was 0% and the “Average Lesion Score” value (Eimeria tenella; second group, 0.01 percent in feed, infected controls 3.85) was 0. For the same compound, the “Percent Weight Gain” value (Eimeria tenella; [12]) was 96%, the “Percent Reduction in Lesion Score” value (Eimeria tenella; [13]) was 100% and the “Percent Mortality” value (Eimeria tenella; second group, 0.02 percent in feed, 20 chickens) was 0%. The “Average Lesion Score” value (Eimeria tenella; second group, 0.02 percent in feed, infected controls 3.85) was 0, the “Percent Weight Gain” value (Eimeria tenella; [13]) was 84% and the “Oocysts Passed, Percent Reduction” value (Eimeria acervulina; 0.0025 percent in feed) was 86%. For the same compound, the “Percent Mortality” value (Eimeria acervulina; 0.0025 percent in feed) was 0%, the “Average Lesion Score” value (Eimeria acervulina; 0.0025 percent in feed) was 1.25 and the “Oocysts Passed, Total/Bird” value (Eimeria acervulina; 0.0025 percent in feed) was 4.91 1 × 10^6. The “Percent Weight Gain” value (Eimeria acervulina; 0.0025 percent in feed) was 82%, the “Oocysts Passed, Percent Reduction” value (Eimeria acervulina; 0.005 percent in feed) was 83% and the “Percent Mortality” value (Eimeria acervulina; 0.005 percent in feed) was 0%. The “Percent Reduction in Lesion Score” value (Eimeria acervulina; 0.005 percent in feed) was 53%, the “Average Lesion Score” value (Eimeria acervulina; 0.005 percent in feed) was 0.75 and the “Oocysts Passed, Total/Bird” value (Eimeria acervulina; 0.005 percent in feed) was 6.15 1 × 10^6. For the same compound, the “Percent Weight Gain” value (Eimeria acervulina; 0.005 percent in feed) was 87%, the “Oocysts Passed, Percent Reduction” value (Eimeria maxima) was 40% and the “Percent Mortality” value (Eimeria maxima) was 0%. The “Percent Reduction in Lesion Score” value (Eimeria maxima) was 85%, the “Average Lesion Score” value (Eimeria maxima; infected controls 1.3) was 0.2 and the “Oocysts Passed, Total/Bird” value (Eimeria maxima; infected controls 3.24) was 1.95 1 × 10^6. For the same compound, the “Percent Weight Gain” value (Eimeria maxima; infected controls 65) was 85%, the “Oocysts Passed, Percent Reduction” value (Emeria brunetti) was 58% and the “Percent Mortality” value (Emeria brunetti) was 0%. The “Average Lesion Score” value (Emeria brunetti; infected controls 1.7) was 1.2, the “Oocysts Passed, Total/Bird” value (Emeria brunetti; infected controls 5.55) was 2.31 1 × 10^6 and the “Percent Weight Gain” value (Emeria brunetti; infected controls 62) was 88%. For the same compound, the “Cecal Lesions, Percent Reduction” value [4] was 50%, the “Intestinal Lesions, Percent Reduction” value [4] was 59% and the “Intestinal Lesions, Average” value ([4]; infected controls 1.7) was 0.7. The “Cecal Lesions, Average” value ([4]; infected controls 3.5) was 1.75, the “Percent Mortality” value ([4]; infected controls 20) was 0% and the “Percent Weight Gain” value ([4]; infected controls 52) was 94%. For the same compound, the “Cecal Lesions, Percent Reduction” value [5] was 73%, the “Intestinal Lesions, Percent Reduction” value [5] was 79% and the “Intestinal Lesions, Average” value ([5]; infected controls 1.9) was 0.4. The “Cecal Lesions, Average” value ([5]; infected controls 3.3) was 0.9, the “Percent Weight Gain” value ([5]; infected controls 12) was 91% and the “Percent Mortality” value ([5]; infected controls 50) was 0%. The “Percent Increase Over Control in ruminal propionic acid concentration” value (ruminal propionic acid; 25 mg/day) was 17.4%, the “Percent Increase Over Control in ruminal propionic acid concentration” value (ruminal propionic acid; 100 mg/day) was 54.0% and the “Feed Intake” value ([6]; 9 g per ton of feed) was 3.29 lbs./day. For the same compound, the Feed/Gain ([6]; 9 g per ton of feed) was 7.40, the “Average Daily Gain” value ([6]; 9 g per ton of feed) was “.44 lbs./day” and the “Feed Intake” value ([6]; 18 g per ton of feed) was 3.15 lbs./day. For the same compound, the Feed/Gain ([6]; 18 g per ton of feed) was 8.31, the “Average Daily Gain” value ([6]; 18 g per ton of feed) was “.38 lbs./day” and the “feed-utilization efficiency (in words)” value ([6]; sheep) was “increases feed-utilization efficiency”.

Reference: patent US4085224A, “Method of increasing feed utilization” (Eli Lilly and Company, priority 1976, dated 1978)
